Here are results for two compounds from PMC5762204 (Journal of Pharmaceutical Analysis, 2014).

As a reminder, the Tmax is the time at which the peak concentration occurs. By half-life is commonly meant the time in which the quantity being followed falls by half. Lower therefore signals fast loss.

This data set is described as follows: Pharmacokinetic study in rats after oral administration. The data set is classed as in vivo. Particulars: male, Wistar, rat, plasma.

Each structure is given as a SMILES string.

Consider `CCC(C)(C)C(=O)O[C@H]1C[C@@H](C)C=C2C=C[C@H](C)[C@H](CC[C@@H]3C[C@@H](O)CC(=O)O3)[C@H]21` [Simvastatin, simvastatin], for which the Tmax turned out to be 0.75 h and the half-life was 5.6 ± 0.1 h.
Regarding `N[C@@H](CC(=O)N1CCn2c(nnc2C(F)(F)F)C1)Cc1cc(F)c(F)cc1F` [Sitagliptin, sitagliptin], the Tmax was found to be 1 h and the half-life is 6.1 ± 0.2 h.
